The supplement of paper PMC10307832

Legend:
Experiment in all cases: relative viability (nuclei count vs DMSO), 5 days (fraction); higher = more cells survive
[1] = compound: O=C(/C=C/c1cccnc1)NCCCCC1CCN(C(=O)c2ccccc2)CC1 [Daporinad] + CS(=O)(=O)N1CCN(Cc2cc3nc(-c4cccc5[nH]ncc45)nc(N4CCOCC4)c3s2)CC1 [Pictilisib] (partner 1 µM)
Outline: (§1)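 Relative viability equals treated-well nuclei counts divided by vehicle-well nuclei counts. Counts came from 4× images of lung cancer cell lines grown in 1536-well plates for 5 days after pin-tool dosing on the day after seeding. Dosing used one drug alone or a fixed anchor-drug dose plus five library-drug doses (not always all listed) in √10 steps, and values are medians of duplicate plates.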

[2] = compound: O=C(/C=C/c1cccnc1)NCCCCC1CCN(C(=O)c2ccccc2)CC1 [Daporinad] + NC(=O)Nc1cc(-c2cccc(F)c2)sc1C(=O)N[C@H]1CCCNC1 [AZD7762] (partner 0.2 µM)
Outline: as §1

[3] = compound: COc1cc(Nc2ncc(F)c(Nc3ccc4c(n3)NC(=O)C(C)(C)O4)n2)cc(OC)c1OC [R406] + CCNC(=O)c1noc(-c2cc(C(C)C)c(O)cc2O)c1-c1ccc(CN2CCOCC2)cc1 [Luminespib] (partner 0.01 µM)
Outline: as §1

[4] = compound: COc1cc(Nc2ncc(F)c(Nc3ccc4c(n3)NC(=O)C(C)(C)O4)n2)cc(OC)c1OC [R406] + O=C(c1cc(Cc2n[nH]c(=O)c3ccccc23)ccc1F)N1CCN(C(=O)C2CC2)CC1 [Olaparib] (partner 8 µM)
Outline: as §1

Cell Line | relative viability ([1]; first compound 0.0005 µM) | relative viability ([1]; first compound 0.001581 µM) | relative viability ([1]; first compound 0.005 µM) | relative viability ([1]; first compound 0.01581 µM) | relative viability ([2]; first compound 0.0005 µM) | relative viability ([2]; first compound 0.001581 µM) | relative viability ([2]; first compound 0.005 µM) | relative viability ([2]; first compound 0.01581 µM) | relative viability ([3]; first compound 0.08 µM) | relative viability ([3]; first compound 0.253 µM) | relative viability ([3]; first compound 0.8 µM) | relative viability ([3]; first compound 2.53 µM) | relative viability ([3]; first compound 8 µM) | relative viability ([4]; first compound 0.08 µM) | relative viability ([4]; first compound 0.253 µM) | relative viability ([4]; first compound 0.8 µM) | relative viability ([4]; first compound 2.53 µM) | relative viability ([4]; first compound 8 µM)
NCI-H1792 | 0.212 | 0.317 | 0.25 | 0.377 | 0.55 | 0.702 | 0.756 | 0.955 | 0.423 | 0.424 | 0.402 | 0.278 | 0.176 | 0.456 | 0.402 | 0.491 | 0.189 | 0.194
ChaGo-K-1 | 0.774 | 0.64 | 0.702 | 0.578 | 0.834 | 0.903 | 0.755 | 0.3 | 0.613 | 0.548 | 0.652 | 0.404 | 0.473 | 0.381 | 0.485 | 0.438 | 0.422 | 0.296
LOU-NH91 | 0.528 | 0.568 | 0.587 | 0.577 | 0.761 | 0.803 | 0.905 | 0.816 | 0.329 | 0.357 | 0.278 | 0.297 | 0.272 | 0.898 | 0.956 | 0.934 | 0.658 | 0.478
NCI-H2405 | 0.505 | 0.485 | 0.5 | 0.377 | 0.786 | 0.856 | 0.792 | 0.357 | 0.651 | 0.954 | 0.766 | 0.26 | 0.241 | 0.857 | 0.879 | 0.879 | 0.748 | 0.306
LCLC-97TM1 | 0.2 | 0.185 | 0.284 | 0.26 | 0.209 | 0.274 | 0.238 | 0.195 | 0.771 | 0.883 | 0.72 | 0.571 | 0.291 | 0.371 | 0.465 | 0.534 | 0.253 | 0.179
NCI-H647 | 0.403 | 0.556 | 0.489 | 0.53 | 0.428 | 0.749 | 0.573 | 0.514 | 0.235 | 0.191 | 0.348 | 0.128 | 0.123 | 0.423 | 0.633 | 0.643 | 0.231 | 0.0598
NCI-H838 | 0.507 | 0.559 | 0.592 | 0.53 | 1.02 | 1.02 | 0.894 | 0.837 | 0.277 | 0.319 | 0.176 | 0.234 | 0.236 | 0.725 | 0.798 | 0.908 | 0.248 | 0.142
H3255 | 0.46 | 0.488 | 0.507 | 0.469 | 0.869 | 1.04 | 1.03 | 0.972 | 1.04 | – | 0.827 | 0.69 | 0.731 | 0.556 | 0.607 | 0.545 | 0.512 | 0.475
NCI-H2170 | 0.315 | 0.331 | 0.301 | 0.407 | 0.807 | 0.974 | 0.979 | 0.92 | 0.641 | 0.622 | 0.856 | 0.366 | 0.574 | 0.63 | 0.573 | 0.648 | 0.44 | 0.488
NCI-H1437 | 0.418 | 0.527 | 0.433 | 0.553 | 1.12 | 1.16 | 1.14 | 1.09 | 1.14 | 1.13 | 1.15 | 1.23 | 0.966 | 0.611 | 0.622 | 0.647 | 0.546 | 0.431
NCI-H358 | 0.266 | 0.405 | 0.338 | 0.438 | 0.473 | 0.584 | 0.506 | 0.67 | 0.313 | 0.555 | 0.492 | 0.147 | 0.136 | 0.562 | 0.617 | 0.632 | 0.279 | 0.209
LU99A | 0.312 | 0.383 | 0.392 | 0.306 | 0.31 | 0.281 | 0.377 | 0.307 | 0.232 | 0.27 | 0.244 | 0.172 | 0.221 | 0.244 | 0.258 | 0.267 | 0.218 | 0.234
HCC-827 | 1.12 | 0.994 | 1.23 | 1.01 | 0.219 | 0.23 | 0.263 | 0.287 | 0.772 | 0.385 | 0.563 | 0.334 | 0.195 | 0.724 | 0.663 | 0.667 | 0.522 | 0.545
LK-2 | 0.605 | 0.689 | 0.46 | 0.354 | 0.523 | 0.36 | 0.199 | 0.141 | 0.187 | 0.198 | 0.169 | 0.163 | 0.197 | 0.592 | 1.13 | 0.888 | 0.661 | 0.305
BEN | 0.624 | 0.62 | 0.597 | 0.776 | 0.779 | 0.661 | 0.812 | 0.824 | 0.365 | 0.343 | 0.22 | 0.214 | 0.392 | 1.09 | 1.24 | 1.28 | 1.04 | 0.871
NCI-H23 | 0.59 | 0.502 | 0.446 | 0.347 | 0.273 | 0.181 | 0.274 | 0.203 | 0.217 | 0.251 | 0.228 | 0.181 | 0.168 | 0.277 | 0.271 | 0.236 | 0.263 | 0.139
NCI-H1395 | 0.615 | 0.697 | 0.574 | 0.674 | 0.386 | 0.391 | 0.441 | 0.384 | 0.502 | 0.725 | 0.71 | 0.466 | 0.355 | 0.455 | 0.475 | 0.444 | 0.421 | 0.362
